Assay type in all cases: nucleic-acid assay
In test [1] the test system is Calf thymus DNA. Briefly: Binding affinity to calf thymus DNA at 10 uM assessed as change in melting temperature. Particulars: Bos taurus.
Test [2] relates to Nucleic Acid. Briefly: Inhibition of Escherichia coli pUC19 DNA photocleavage at 10 uM after 1 hr followed by irradiated for 60 mins by ethidium bromide staining in presence of 100 uM of sodium azide.
Test [3] deals with Nucleic Acid. Briefly: Induction of Escherichia coli pUC19 DNA cleavage assessed as conversion of supercoiled DNA to nicked and linear form of DNA at 10 to 30 uM after 1 hr followed by irradiated for 60 mins by ethidium bromide staining in presence of 1 mol equivalent of copper chloride and 240 mM of potassium chloride.
Test [4] concerns Nucleic Acid. Briefly: Inhibition of Escherichia coli pUC19 DNA photocleavage at 10 uM after 1 hr followed by irradiated for 60 mins by ethidium bromide staining in presence of 100 uM of sodium benzoate and 1 mol equivalent of copper chloride.
In test [5] the test system is Nucleic Acid. Briefly: Inhibition of Escherichia coli pUC19 DNA photocleavage assessed as conversion of supercoiled DNA to nicked form of DNA at 10 uM after 1 hr followed by irradiated for 60 mins by ethidium bromide staining in presence of 100 uM of sodium benzoate.
The test system of test [6] is Nucleic Acid. Briefly: Inhibition of Escherichia coli pUC19 DNA photocleavage assessed as conversion of supercoiled DNA to linear form of DNA at 10 uM after 1 hr followed by irradiated for 60 mins by ethidium bromide staining in presence of 100 uM of sodium benzoate.
In test [7] the test system is Nucleic Acid. The experiment in a line: Inhibition of Escherichia coli pUC19 DNA photocleavage assessed as conversion of supercoiled DNA to nicked form of DNA at 10 uM after 1 hr followed by irradiated for 60 mins by ethidium bromide staining in presence of 100 uM of sodium azide.
Test [8] deals with Nucleic Acid. Briefly: Inhibition of Escherichia coli pUC19 DNA photocleavage at 10 uM after 1 hr followed by irradiated for 60 mins by ethidium bromide staining in presence of 100 uM of sodium benzoate.
The subject of test [9] is Nucleic Acid. The experiment in a line: Inhibition of Escherichia coli pUC19 DNA photocleavage assessed as conversion of supercoiled DNA to linear form of DNA at 10 uM after 1 hr followed by irradiated for 60 mins by ethidium bromide staining in presence of 100 uM of sodium azide.
The subject of test [10] is Nucleic Acid. Briefly: Inhibition of Escherichia coli pUC19 DNA photocleavage assessed as conversion of supercoiled DNA to nicked form of DNA at 10 uM after 1 hr followed by irradiated for 60 mins by ethidium bromide staining in presence of 100 uM of sodium benzoate and 1 mol equivalent of copper chloride.
Test [11] deals with Nucleic Acid. The experiment in a line: Inhibition of Escherichia coli pUC19 DNA photocleavage assessed as conversion of supercoiled DNA to linear form of DNA at 10 uM after 1 hr followed by irradiated for 60 mins by ethidium bromide staining in presence of 100 uM of sodium azide and 1 mol equivalent of copper chloride.
The test system of test [12] is Nucleic Acid. Briefly: Induction of Escherichia coli pUC19 DNA cleavage assessed as conversion of supercoiled DNA to nicked and linear form of DNA at 10 to 30 uM after 1 hr followed by irradiated for 60 mins by ethidium bromide staining in presence of 1 mol equivalent of copper chloride and 150 mM sodium chloride.
Test [13] has as its system Nucleic Acid. Briefly: Induction of Escherichia coli pUC19 DNA cleavage assessed as conversion of supercoiled DNA to nicked and linear form of DNA at 2 to 20 uM irradiated for 50 mins measured after 60 mins by ethidium bromide staining in presence of 1 mol equivalent of copper chloride.
Test [14] has as its system Nucleic Acid. Briefly: Inhibition of Escherichia coli pUC19 DNA photocleavage assessed as conversion of supercoiled DNA to nicked form of DNA at 10 uM after 1 hr followed by irradiated for 60 mins by ethidium bromide staining in presence of 100 uM of sodium azide and 1 mol equivalent of copper chloride.
Test [15] concerns Nucleic Acid. Briefly: Induction of Escherichia coli pUC19 DNA cleavage assessed as conversion of supercoiled DNA to nicked and linear form of DNA at 2 to 50 uM after 60 mins by ethidium bromide staining.
The test system of test [16] is Calf thymus DNA. The experiment in a line: Binding affinity to calf thymus DNA at 10 uM by UV-visible spectra analysis in presence of 1 mol equivalent of copper chloride and 260 mM of potassium chloride. The settings on record: Bos taurus.
In test [17] the test system is Nucleic Acid. Briefly: Induction of Escherichia coli pUC19 DNA cleavage assessed as conversion of supercoiled DNA to nicked and linear form of DNA at 10 to 30 uM after 1 hr followed by irradiated for 60 mins by ethidium bromide staining in presence of 1 mol equivalent of copper chloride and 150 mM sodium chloride and 240 mM of potassium chloride.
The test system of test [18] is Nucleic Acid. Briefly: Induction of Escherichia coli pUC19 DNA cleavage assessed as conversion of supercoiled DNA to nicked and linear form of DNA at 10 uM irradiated for 50 mins measured after 60 mins by ethidium bromide staining.
Test [19] concerns Nucleic Acid. Briefly: Inhibition of Escherichia coli pUC19 DNA photocleavage at 10 uM after 1 hr followed by irradiated for 60 mins by ethidium bromide staining in presence of 100 uM of sodium azide and 1 mol equivalent of copper chloride.
Test [20] concerns Calf thymus DNA. Briefly: Binding affinity to calf thymus DNA at 10 uM assessed as change in melting temperature in presence of copper. The settings on record: Bos taurus.
In test [21] the test system is Nucleic Acid. The experiment in a line: Inhibition of Escherichia coli pUC19 DNA photocleavage assessed as conversion of supercoiled DNA to linear form of DNA at 10 uM after 1 hr followed by irradiated for 60 mins by ethidium bromide staining in presence of 100 uM of sodium benzoate and 1 mol equivalent of copper chloride.

Active and inactive are the calls of the source. The calls are words filed in the database; no cut-off is given here.

Broadly, the inhibition is the relative decrease from the control value, in per cent. `Nc1ccc2cc3ccc(NCc4cccc(CNc5ccc6cc7ccc(N)cc7nc6c5)n4)cc3nc2c1`: the results for the Tm in the test on Calf thymus DNA [1] and in the test on Calf thymus DNA [20] were 79 °C and 80 °C, respectively. Also, the inhibition with Nucleic Acid [2] was 34%; in the test with Nucleic Acid [4] it was 0%; in the test with Nucleic Acid [5] it was -10%; in the test on Nucleic Acid [6], 91%; in the test with Nucleic Acid [7], 29%; in the test with Nucleic Acid [8], 0%. Further, the inhibition in the test on Nucleic Acid [9] is 80%; with Nucleic Acid [10] it was -7%; in the test on Nucleic Acid [11], 82%; with Nucleic Acid [14], -1%; in the test on Nucleic Acid [19], 5%; in the test with Nucleic Acid [21] it was 88%. Further, the outcome with Nucleic Acid [3], with Nucleic Acid [12], in the test on Nucleic Acid [15], with Calf thymus DNA [16], in the test with Nucleic Acid [17] and in the test on Nucleic Acid [18] was Active. In addition, in the test with Nucleic Acid [13], the outcome was inactive.

These data come from ChEMBL document CHEMBL1667793, “Synthesis and DNA photocleavage by a pyridine-linked bis-acridine chromophore in the presence of copper(II): ionic strength effects” (Bioorg Med Chem Lett, 2011).
